Source: ChEMBL document CHEMBL4665869, “New thiazolopyrimidine as anticancer agents: Synthesis, biological evaluation, DNA binding, molecular modeling and ADMET study” (Bioorg Med Chem Lett, 2020)
≈ marks a conversion by molar mass, not a printed value.

How the values were obtained:
SNB-75 = assay: Growth inhibition of human SNB-75 cells at 10 uM relative to control; format: functional; settings: read-out: GI
NCI-H522 = assay: Growth inhibition of human NCI-H522 cells at 10 uM relative to control; format: functional; settings: read-out: GI
SK-OV-3 = assay: Growth inhibition of human SK-OV-3 cells at 10 uM relative to control; format: functional; settings: read-out: GI
RXF 393 = assay: Growth inhibition of human RXF 393 cells at 10 uM relative to control; format: functional; settings: read-out: GI
HCT-116 = assay: Growth inhibition of human HCT-116 cells at 10 uM relative to control; format: functional; settings: read-out: GI
NCI-H460 = assay: Growth inhibition of human NCI-H460 cells at 10 uM relative to control; format: functional; settings: read-out: GI
SNB-19 = assay: Growth inhibition of human SNB-19 cells at 10 uM relative to control; format: functional; settings: read-out: GI
NCI-H322M = assay: Growth inhibition of human NCI-H322M cells at 10 uM relative to control; format: functional; settings: read-out: GI
MDA-MB-231 = assay: Growth inhibition of human MDA-MB-231 cells at 10 uM relative to control; format: functional; settings: read-out: GI
BT-549 = assay: Growth inhibition of human BT-549 cells at 10 uM relative to control; format: functional; settings: read-out: GI
LOX IMVI = assay: Growth inhibition of human LOX IMVI cells at 10 uM relative to control; format: functional; settings: read-out: GI
DNA = assay: Displacement of methyl green from DNA (unknown origin) assessed as DNA intercalation after 24 hrs by colorimetric assay; format: nucleic-acid assay
HT-29 = assay: Growth inhibition of human HT-29 cells at 10 uM relative to control; format: functional; settings: read-out: GI
SR = assay: Growth inhibition of human SR cells at 10 uM relative to control; format: functional; settings: read-out: GI
CAKI-1 = assay: Growth inhibition of human CAKI-1 cells at 10 uM relative to control; format: functional; settings: read-out: GI
Malme-3M = assay: Growth inhibition of human Malme-3M cells at 10 uM relative to control; format: functional; settings: read-out: GI
A549 = assay: Growth inhibition of human A549 cells at 10 uM relative to control; format: functional; settings: read-out: GI
SK-MEL-28 = assay: Growth inhibition of human SK-MEL-28 cells at 10 uM relative to control; format: functional; settings: read-out: GI
RPMI-8226 = assay: Growth inhibition of human RPMI-8226 cells at 10 uM relative to control; format: functional; settings: read-out: GI
MCF7 = assay: Growth inhibition of human MCF7 cells at 10 uM relative to control; format: functional; settings: read-out: GI
COLO 205 = assay: Growth inhibition of human COLO 205 cells at 10 uM relative to control; format: functional; settings: read-out: GI
M14 = assay: Growth inhibition of human M14 cells at 10 uM relative to control; format: functional; settings: read-out: GI
ACHN = assay: Growth inhibition of human ACHN cells at 10 uM relative to control; format: functional; settings: read-out: GI
UACC-257 = assay: Growth inhibition of human UACC-257 cells at 10 uM relative to control; format: functional; settings: read-out: GI
786-0 = assay: Growth inhibition of human 786-0 cells at 10 uM relative to control; format: functional; settings: read-out: GI
SW-620 = assay: Growth inhibition of human SW-620 cells at 10 uM relative to control; format: functional; settings: read-out: GI
T47D = assay: Growth inhibition of human T47D cells at 10 uM relative to control; format: functional; settings: read-out: GI
CCRF-CEM = assay: Growth inhibition of human CCRF-CEM cells at 10 uM relative to control; format: functional; settings: read-out: GI
UACC-62 = assay: Growth inhibition of human UACC-62 cells at 10 uM relative to control; format: functional; settings: read-out: GI
MDA-MB-468 = assay: Growth inhibition of human MDA-MB-468 cells at 10 uM relative to control; format: functional; settings: read-out: GI
SN12C = assay: Growth inhibition of human SN12C cells at 10 uM relative to control; format: functional; settings: read-out: GI
HOP-92 = assay: Growth inhibition of human HOP-92 cells at 10 uM relative to control; format: functional; settings: read-out: GI
NCI/ADR-RES = assay: Growth inhibition of human NCI/ADR-RES cells at 10 uM relative to control; format: functional; settings: read-out: GI
NCI-H23 = assay: Growth inhibition of human NCI-H23 cells at 10 uM relative to control; format: functional; settings: read-out: GI
DU-145 = assay: Growth inhibition of human DU-145 cells at 10 uM relative to control; format: functional; settings: read-out: GI
HL-60(TB) = assay: Growth inhibition of human HL-60(TB) cells at 10 uM relative to control; format: functional; settings: read-out: GI
NCI-H226 = assay: Growth inhibition of human NCI-H226 cells at 10 uM relative to control; format: functional; settings: read-out: GI
SF-295 = assay: Growth inhibition of human SF-295 cells at 10 uM relative to control; format: functional; settings: read-out: GI
SF-539 = assay: Growth inhibition of human SF-539 cells at 10 uM relative to control; format: functional; settings: read-out: GI
SF-268 = assay: Growth inhibition of human SF-268 cells at 10 uM relative to control; format: functional; settings: read-out: GI
OVCAR-8 = assay: Growth inhibition of human OVCAR-8 cells at 10 uM relative to control; format: functional; settings: read-out: GI
UO-31 = assay: Growth inhibition of human UO-31 cells at 10 uM relative to control; format: functional; settings: read-out: GI
KM12 = assay: Growth inhibition of human KM12 cells at 10 uM relative to control; format: functional; settings: read-out: GI
TK-10 = assay: Growth inhibition of human TK-10 cells at 10 uM relative to control; format: functional; settings: read-out: GI
OVCAR-4 = assay: Growth inhibition of human OVCAR-4 cells at 10 uM relative to control; format: functional; settings: read-out: GI
MDA-MB-435 = assay: Growth inhibition of human MDA-MB-435 cells at 10 uM relative to control; format: functional; settings: read-out: GI
SK-MEL-2 = assay: Growth inhibition of human SK-MEL-2 cells at 10 uM relative to control; format: functional; settings: read-out: GI
A498 = assay: Growth inhibition of human A498 cells at 10 uM relative to control; format: functional; settings: read-out: GI
HCC 2998 = assay: Growth inhibition of human HCC 2998 cells at 10 uM relative to control; format: functional; settings: read-out: GI
IGROV-1 = assay: Growth inhibition of human IGROV-1 cells at 10 uM relative to control; format: functional; settings: read-out: GI
K562 = assay: Growth inhibition of human K562 cells at 10 uM relative to control; format: functional; settings: read-out: GI
OVCAR-5 = assay: Growth inhibition of human OVCAR-5 cells at 10 uM relative to control; format: functional; settings: read-out: GI
HCT-15 = assay: Growth inhibition of human HCT-15 cells at 10 uM relative to control; format: functional; settings: read-out: GI
HOP-62 = assay: Growth inhibition of human HOP-62 cells at 10 uM relative to control; format: functional; settings: read-out: GI
PC-3 = assay: Growth inhibition of human PC-3 cells at 10 uM relative to control; format: functional; settings: read-out: GI
U-251 = assay: Growth inhibition of human U-251 cells at 10 uM relative to control; format: functional; settings: read-out: GI
Hs-578T = assay: Growth inhibition of human Hs-578T cells at 10 uM relative to control; format: functional; settings: read-out: GI
MOLT-4 = assay: Growth inhibition of human MOLT-4 cells at 10 uM relative to control; format: functional; settings: read-out: GI
SK-MEL-5 = assay: Growth inhibition of human SK-MEL-5 cells at 10 uM relative to control; format: functional; settings: read-out: GI

Q: `CC1=CN2C(=NC(/C=C/c3ccc(Cl)cc3)=CC2c2ccc(Cl)cc2)S1` (centres undefined) was tested. Which inhibition of growth at 10 µM (SNB-75) did it give?
A: 17.3%

Q: And the inhibition of growth at 10 µM (NCI-H522)?
A: < 10%

Q: What about the inhibition of growth at 10 µM (SK-OV-3) of the same compound?
A: < 10%

Q: What about the inhibition of growth at 10 µM (RXF 393) of the same compound?
A: < 10%

Q: What about the inhibition of growth at 10 µM (HCT-116) of the same compound?
A: < 10%

Q: What about the inhibition of growth at 10 µM (NCI-H460) of the same compound?
A: < 10%

Q: What about the inhibition of growth at 10 µM (SNB-19) of the same compound?
A: < 10%

Q: And the inhibition of growth at 10 µM (NCI-H322M)?
A: < 10%

Q: What about the inhibition of growth at 10 µM (MDA-MB-231) of the same compound?
A: < 10%

Q: And the inhibition of growth at 10 µM (BT-549)?
A: < 10%

Q: And the inhibition of growth at 10 µM (LOX IMVI)?
A: < 10%

Q: And the IC50 (DNA)?
A: 45.18 µg/mL (≈ 113 µM)

Q: What about the inhibition of growth at 10 µM (HT-29) of the same compound?
A: < 10%

Q: And the inhibition of growth at 10 µM (SR)?
A: < 10%

Q: What about the inhibition of growth at 10 µM (CAKI-1) of the same compound?
A: < 10%

Q: What about the inhibition of growth at 10 µM (Malme-3M) of the same compound?
A: < 10%

Q: What about the inhibition of growth at 10 µM (A549) of the same compound?
A: < 10%

Q: What about the inhibition of growth at 10 µM (SK-MEL-28) of the same compound?
A: < 10%

Q: And the inhibition of growth at 10 µM (RPMI-8226)?
A: < 10%

Q: What about the inhibition of growth at 10 µM (MCF7) of the same compound?
A: < 10%

Q: And the inhibition of growth at 10 µM (COLO 205)?
A: < 10%

Q: And the inhibition of growth at 10 µM (M14)?
A: < 10%

Q: And the inhibition of growth at 10 µM (ACHN)?
A: < 10%

Q: What about the inhibition of growth at 10 µM (UACC-257) of the same compound?
A: < 10%

Q: And the inhibition of growth at 10 µM (786-0)?
A: < 10%

Q: What about the inhibition of growth at 10 µM (SW-620) of the same compound?
A: < 10%

Q: What about the inhibition of growth at 10 µM (T47D) of the same compound?
A: < 10%

Q: What about the inhibition of growth at 10 µM (CCRF-CEM) of the same compound?
A: < 10%

Q: And the inhibition of growth at 10 µM (UACC-62)?
A: < 10%

Q: And the inhibition of growth at 10 µM (MDA-MB-468)?
A: < 10%

Q: And the inhibition of growth at 10 µM (SN12C)?
A: < 10%

Q: And the inhibition of growth at 10 µM (HOP-92)?
A: < 10%

Q: What about the inhibition of growth at 10 µM (NCI/ADR-RES) of the same compound?
A: < 10%

Q: And the inhibition of growth at 10 µM (NCI-H23)?
A: < 10%

Q: What about the inhibition of growth at 10 µM (DU-145) of the same compound?
A: < 10%

Q: What about the inhibition of growth at 10 µM (HL-60(TB)) of the same compound?
A: < 10%

Q: And the inhibition of growth at 10 µM (NCI-H226)?
A: < 10%

Q: What about the inhibition of growth at 10 µM (SF-295) of the same compound?
A: < 10%

Q: And the inhibition of growth at 10 µM (SF-539)?
A: < 10%

Q: What about the inhibition of growth at 10 µM (SF-268) of the same compound?
A: < 10%

Q: What about the inhibition of growth at 10 µM (OVCAR-8) of the same compound?
A: < 10%

Q: What about the inhibition of growth at 10 µM (UO-31) of the same compound?
A: < 10%

Q: And the inhibition of growth at 10 µM (KM12)?
A: < 10%

Q: What about the inhibition of growth at 10 µM (TK-10) of the same compound?
A: < 10%

Q: What about the inhibition of growth at 10 µM (OVCAR-4) of the same compound?
A: < 10%

Q: And the inhibition of growth at 10 µM (MDA-MB-435)?
A: < 10%

Q: What about the inhibition of growth at 10 µM (SK-MEL-2) of the same compound?
A: < 10%

Q: And the inhibition of growth at 10 µM (A498)?
A: 12.3%

Q: And the inhibition of growth at 10 µM (HCC 2998)?
A: < 10%

Q: And the inhibition of growth at 10 µM (IGROV-1)?
A: < 10%

Q: And the inhibition of growth at 10 µM (K562)?
A: < 10%

Q: What about the inhibition of growth at 10 µM (OVCAR-5) of the same compound?
A: < 10%

Q: What about the inhibition of growth at 10 µM (HCT-15) of the same compound?
A: < 10%

Q: And the inhibition of growth at 10 µM (HOP-62)?
A: < 10%

Q: And the inhibition of growth at 10 µM (PC-3)?
A: < 10%

Q: What about the inhibition of growth at 10 µM (U-251) of the same compound?
A: < 10%

Q: And the inhibition of growth at 10 µM (Hs-578T)?
A: < 10%

Q: What about the inhibition of growth at 10 µM (MOLT-4) of the same compound?
A: < 10%

Q: What about the inhibition of growth at 10 µM (SK-MEL-5) of the same compound?
A: < 10%
